Patent US9650360B2, “Anti-mycobacterial drugs against tuberculosis” (priority 2012, dated 2017)

System: HIV
Assay: in vitro anti-HIV activity in cell culture
Type: cell-based

O=C(/C=C(\O)c1cc(Cc2c(F)cc(F)cc2F)cn(Cc2ccccc2F)c1=O)C(=O)N1CCN(c2cccc3ccccc23)CC1
EC90 (concentration for 90% inhibition of virus replication): nM range
